The structures appear in SMILES notation.

The experiment deals with T1, recombinant human aldose reductase (Homo sapiens, UniProt P15121).
T1 construct: made in house; host or cells: Baculovirus-insect cell system
The experiment in a line: Aldose reductase inhibition (decrease with time in absorbance at 340 nm, NADPH / DL-glyceraldehyde). The following applies: 0.1M phosphoric acid buffer, 25°C, absorbance 340 nm, read-out: IC₅₀. The experiment is classed as biochemical. An excerpt:
A large amount of recombinant human aldose reductase was expressed in a Baculovirus-insect cell system by Nishimura et al method (Nishimura et al, J. Biol. Chem. volume 265, pages 9,788-9,792, 1990 and Biochem. Biophys. Acta. volume 1,078, pages 171-178, 1991; and Tanimoto and Nishimura, Experimental Medicine, volume 9, No. 5 (extra issue), pages 165-170, 1991). Purification was made by affinity chromatography, gel filtration and chromatofocusing until electrophoretically uniform aldose reductase was obtained.
To 0.1M phosphoric acid buffer solution (0.8 ml) was added 3mM NADPH (0.05 ml), DL-glyceral-dehyde (0.1 ml) and distilled water (0.04 ml). The mixture was left to stand at 25°C for three minutes. To the mixture was added aldose reductase solution (0.01 ml) in order to start a reaction. Measurement was made of reduction with time in absorbance of 340 nm at 25°C. The amount of enzyme that consumes 1µ mole of […] per minute was taken as a unit.
Enzyme activities were measured after aqueous inhibiting substance solution (0.04 ml each) having various concentrations in place of the distilled water (0.04 ml) under the same conditions as those for aldose reductase. IC₅₀ values that inhibit enzyme activity by 50% were calculated on the basis of enzyme activities measured in the presence or absence of the inhibitors. The inhibitors used include: 8,10-dicarboxy-2-methoxycarbonyl-1H-oxazo[5,4-h] pyrrolo[2,3-f]quinoline (Compound 1, abbreviated OPQ-8,10-DCA-2-ME); 8-carboxy-2,10-dimethoxycarbonyl-1H-oxazo[5,4-h] pyrrolo-[2,3-f]quinoline (Compound 2, abbreviated OPQ-8-CA-2,10-DME); 10-(N-n-amyl)carbamoyl-2,8-dicarboxy-1H-oxazo [5,4-h]pyrrolo[2,3-f]quinoline (Compound 3, abbreviated OPQ-2,8-DCA-10-AA); 10-(N-n-amyl)carbamoyl-8-carboxy-2-methoxy-carbonyl-1H-oxazo[5,4-h]pyrrolo[2,3-f]quinoline (Compound 4, abbreviated OPQ-8-CA-2-ME-10-AA); 2,10-dicarboxy-8-methoxycarbonyl-1H-oxazo[5,4-h] pyrrolo-[2,3-f]quinoline (abbreviated OPQ-2,10-DCA-8-ME); 10-carboxy-2,8-dimethoxycarbonyl-1H-oxazo[5,4-h] pyrrolo-[2,3-f]quinoline (abbreviated OPQ-10-CA-2,8-DME); 2,8,10-trimethoxycarbonyl-1H-oxazo[5,4-h]pyrrolo [2,3-f]-quinoline (abbreviated OPQ-2,8,10-TME); 10-carboxy-2-methoxycarbonyl-1H-oxazo[5,4-h] pyrrolo-[2,3-f]quinoline (abbreviated OPQ-10-CA-2-ME); 8,10-diethoxycarbonyl-2-methoxycarbonyl-1H-oxazo [5,4-hj]yrrolo[2,3-f]quinoline (abbreviated OPQ-2-ME-8,10-DME); 10-(N-n-amyl) carbamoyl-2,8-dimethoxycarbonyl-1H-oxazo[5,4-h]pyrrolo[2,3-f]quinoline (abbreviated OPQ-2,8-DME-10-AA); and 2,8,10-tri[(N-n-amyl)carbamoyl]-1H-oxazo[5,4-h] pyrrolo-[2,3-f]quinoline (abbreviated OPQ-2,8,10-TAA).
As for `COC(=O)c1cc2c([nH]1)c1c(C(=O)O)cc(C(=O)O)nc1c1ncoc21` [Compound 1, 8,10-dicarboxy-2-methoxycarbonyl-1H-oxazo[5,4-h] pyrrolo[2,3-f]quinoline], the IC50 was 260 nM. In the case of `COC(=O)c1cc2c([nH]1)c1c(C(=O)OC)cc(C(=O)O)nc1c1ncoc21` [Compound 2, 8-carboxy-2,10-dimethoxycarbonyl-1H-oxazo[5,4-h] pyrrolo-[2,3-f]quinoline], the IC50 worked out at 580 nM. Consider `CCCCCNC(=O)c1cc(C(=O)O)nc2c3ncoc3c3cc(C(=O)O)[nH]c3c12` [Compound 3, 10-(N-n-amyl)carbamoyl-2,8-dicarboxy-1H-oxazo [5,4-h]pyrrolo[2,3-f]quinoline], for which the IC50 came out at 260 nM. With `CCCCCNC(=O)c1cc(C(=O)O)nc2c3ncoc3c3cc(C(=O)OC)[nH]c3c12` [Compound 4, 10-(N-n-amyl)carbamoyl-8-carboxy-2-methoxy-carbonyl-1H-oxazo[5,4-h]pyrrolo[2,3-f]quinoline] the figure was 190 nM; with `CCCCCNC(=O)c1cc(C(=O)NCCCCC)c2c(n1)c1ncoc1c1cc(C(=O)NCCCCC)[nH]c12` [OPQ-2,8,10-TAA, 2,8,10-tri[(N-n-amyl)carbamoyl]-1H-oxazo[5,4-h] pyrrolo-[2,3-f]quinoline], 77000 nM; with `COC(=O)c1cc(C(=O)OC)c2c(n1)c1ncoc1c1cc(C(=O)OC)[nH]c12` [OPQ-2,8,10-TME, 2,8,10-trimethoxycarbonyl-1H-oxazo[5,4-h]pyrrolo [2,3-f]-quinoline], greater than 100000 nM. On to `CCCCCNC(=O)c1cc(C(=O)OC)nc2c3ncoc3c3cc(C(=O)OC)[nH]c3c12` [OPQ-2,8-DME-10-AA, 10-(N-n-amyl) carbamoyl-2,8-dimethoxycarbonyl-1H-oxazo[5,4-h]pyrrolo[2,3-f]quinoline], for which the IC50 came out at 93000 nM. For `COC(=O)c1cc(C(=O)O)c2c(n1)c1ncoc1c1cc(C(=O)O)[nH]c12` [OPQ-2,10-DCA-8-ME, 2,10-dicarboxy-8-methoxycarbonyl-1H-oxazo[5,4-h] pyrrolo-[2,3-f]quinoline], the IC50 came out at 2900 nM. Turning to `CCOC(=O)c1cc(C(=O)OCC)c2c(n1)c1ncoc1c1cc(C(=O)OC)[nH]c12` [OPQ-2ME-8,10-DEE, 8,10-diethoxycarbonyl-2-methoxycarbonyl-1H-oxazo [5,4-hj]yrrolo[2,3-f]quinoline], the IC50 is greater than 100000 nM.

As for `COC(=O)c1cc(C(=O)O)c2c(n1)c1ncoc1c1cc(C(=O)OC)[nH]c12` [OPQ-10-CA-2,8-DME, 10-carboxy-2,8-dimethoxycarbonyl-1H-oxazo[5,4-h] pyrrolo-[2,3-f]quinoline], the IC50 amounted to 1300 nM. Regarding `COC(=O)c1cc2c([nH]1)c1c(C(=O)O)ccnc1c1ncoc21` [OPQ-10-CA-2ME, 10-carboxy-2-methoxycarbonyl-1H-oxazo[5,4-h] pyrrolo-[2,3-f]quinoline], the IC50 was 1700 nM.

These data come from patent EP0670321A1, “Oxazopyrroloquinoline deivatives and use thereof” (MITSUBISHI GAS CHEMICAL COMPANY, INC., priority 1994, dated 1995).
